Measured values: ChEMBL document CHEMBL1201862, “PubChem BioAssay data set” (2004)
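Grown in 96-well plates, cells were treated for 48 hours with each compound at five concentrations. Insufficient inhibition: endpoint recorded as highest concentration tested. GI50 marks 50% less growth.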 Calls of active or inactive are those of the source. No stated cut-off is given here; in the data, active = GI50 up to about 1.1 µM and inactive = higher.

Assays:
Assay in all cases: growth of human tumour cells (NCI), 48 h
A498 = system: A498
A549 = system: A549
CCRF-CEM = system: CCRF-CEM
COLO 205 = system: COLO 205
DLD-1 = system: DLD-1
DMS-114 = system: DMS-114
DMS-273 = system: DMS-273
EKVX = system: EKVX
HCC 2998 = system: HCC 2998
HCT-116 = system: HCT-116
HCT-15 = system: HCT-15
HL-60 = system: HL-60
HOP-18 = system: HOP-18
HOP-62 = system: HOP-62
HT-29 = system: HT-29
IGROV-1 = system: IGROV-1
K562 = system: K562
KM-20L2 = system: KM-20L2
KM12 = system: KM12
LOX IMVI = system: LOX IMVI
M19-MEL = system: M19-MEL
MCF7 = system: MCF7
MOLT-4 = system: MOLT-4
Malme-3M = system: Malme-3M
NCI-H226 = system: NCI-H226
NCI-H23 = system: NCI-H23
NCI-H460 = system: NCI-H460
NCI-H522 = system: NCI-H522
NCI/ADR-RES = system: NCI/ADR-RES
OVCAR-3 = system: OVCAR-3
OVCAR-4 = system: OVCAR-4
OVCAR-5 = system: OVCAR-5
OVCAR-8 = system: OVCAR-8
RPMI-8226 = system: RPMI-8226
RXF 393 = system: RXF 393
SF-268 = system: SF-268
SF-295 = system: SF-295
SF-539 = system: SF-539
SK-MEL-28 = system: SK-MEL-28
SK-MEL-2 = system: SK-MEL-2
SK-MEL-5 = system: SK-MEL-5
SK-OV-3 = system: SK-OV-3
SN12C = system: SN12C
SNB-19 = system: SNB-19
SNB-75 = system: SNB-75
SNB-78 = system: SNB-78
SW-620 = system: SW-620
U-251 = system: U-251
UACC-257 = system: UACC-257
UACC-62 = system: UACC-62
UO-31 = system: UO-31
XF498 = system: XF498
786-0 = system: 786-0
ACHN = system: ACHN
BT-549 = system: BT-549
CAKI-1 = system: CAKI-1
DU-145 = system: DU-145
HOP-92 = system: HOP-92
Hs-578T = system: Hs-578T
M14 = system: M14
MDA-MB-231 = system: MDA-MB-231
MDA-MB-435 = system: MDA-MB-435
MDA-N = system: MDA-N
PC-3 = system: PC-3
SR = system: SR
T47D = system: T47D
TK-10 = system: TK-10

CC(C)CCCC(C)[C@H]1CCC(C2C[C@@H](O)[C@@H]3CC(O)[C@@H](O)C[C@]3(CO)C2=O)[C@]1(C)CCO (some centres undefined) was tested, and the GI50 (A498) was 25.6 µM (inactive), the GI50 (A549) was 34 µM (inactive) and the GI50 (CCRF-CEM) was 17 µM (inactive). The GI50 (COLO 205) was 20 µM (inactive), the GI50 (DLD-1) was 31.7 µM (inactive) and the GI50 (DMS-114) was 20.6 µM (inactive). For the same molecule, the GI50 (DMS-273) was 32.3 µM (inactive), the GI50 (EKVX) was > 57.8 µM (inactive) and the GI50 (HCC 2998) was 21.2 µM (inactive). For the same molecule, the GI50 (HCT-116) was 20 µM (inactive), the GI50 (HCT-15) was 28.8 µM and the GI50 (HL-60) was 16.1 µM (inactive). For the same molecule, the GI50 (HOP-18) was 23.7 µM (inactive), the GI50 (HOP-62) was 23.9 µM (inactive) and the GI50 (HT-29) was 19.5 µM (inactive). The GI50 (IGROV-1) was 23.3 µM (inactive), the GI50 (K562) was 24.4 µM (inactive) and the GI50 (KM-20L2) was 20 µM (inactive). The GI50 (KM12) was 14.3 µM (inactive), the GI50 (LOX IMVI) was 20.9 µM (inactive) and the GI50 (M19-MEL) was 21 µM (inactive). The GI50 (MCF7) was 14.2 µM (inactive), the GI50 (MOLT-4) was 0.491 µM (active) and the GI50 (Malme-3M) was 23.1 µM (inactive). For the same molecule, the GI50 (NCI-H226) was 30.7 µM (inactive), the GI50 (NCI-H23) was 36.1 µM (inactive) and the GI50 (NCI-H460) was 21.8 µM (inactive). The GI50 (NCI-H522) was 26.3 µM (inactive), the GI50 (NCI/ADR-RES) was 37.6 µM (inactive) and the GI50 (OVCAR-3) was 21.4 µM (inactive). For the same molecule, the GI50 (OVCAR-4) was 30.6 µM (inactive), the GI50 (OVCAR-5) was 23.2 µM (inactive) and the GI50 (OVCAR-8) was > 50.1 µM (inactive). The GI50 (RPMI-8226) was 27.1 µM (inactive), the GI50 (RXF 393) was 24.9 µM (inactive) and the GI50 (SF-268) was 25 µM (inactive). For the same molecule, the GI50 (SF-295) was 20.4 µM (inactive), the GI50 (SF-539) was 20.9 µM (inactive) and the GI50 (SK-MEL-28) was 21.8 µM (inactive). The GI50 (SK-MEL-2) was 22.3 µM (inactive), the GI50 (SK-MEL-5) was 14.2 µM (inactive) and the GI50 (SK-OV-3) was 25.8 µM (inactive). For the same molecule, the GI50 (SN12C) was 30.2 µM (inactive), the GI50 (SNB-19) was 28.4 µM (inactive) and the GI50 (SNB-75) was 20.4 µM (inactive). The GI50 (SNB-78) was 32.7 µM (inactive), the GI50 (SW-620) was 23.4 µM (inactive) and the GI50 (U-251) was 19.4 µM (inactive). The GI50 (UACC-257) was 20 µM (inactive), the GI50 (UACC-62) was 19.2 µM (inactive) and the GI50 (UO-31) was 23 µM (inactive). The GI50 (XF498) was > 42.9 µM (inactive).
CS(=O)(=O)OCCCNCCCOS(C)(=O)=O was tested, and the GI50 (786-0) was 881 µM (inactive), the GI50 (A498) was 1330 µM (inactive) and the GI50 (A549) was 741 µM (inactive). For the same molecule, the GI50 (ACHN) was 392 µM (inactive), the GI50 (BT-549) was 1270 µM (inactive) and the GI50 (CAKI-1) was 650 µM (inactive). For the same molecule, the GI50 (CCRF-CEM) was 262 µM (inactive), the GI50 (COLO 205) was 1730 µM (inactive) and the GI50 (DLD-1) was 2810 µM (inactive). The GI50 (DMS-114) was 849 µM (inactive), the GI50 (DMS-273) was 328 µM (inactive) and the GI50 (DU-145) was 627 µM (inactive). The GI50 (EKVX) was 1810 µM (inactive), the GI50 (HCC 2998) was 1280 µM (inactive) and the GI50 (HCT-116) was 1440 µM (inactive). The GI50 (HCT-15) was 1460 µM, the GI50 (HL-60) was 201 µM (inactive) and the GI50 (HOP-18) was 1420 µM (inactive). For the same molecule, the GI50 (HOP-62) was 729 µM (inactive), the GI50 (HOP-92) was 957 µM (inactive) and the GI50 (HT-29) was 1210 µM (inactive). For the same molecule, the GI50 (Hs-578T) was 2090 µM (inactive), the GI50 (IGROV-1) was 2110 µM (inactive) and the GI50 (K562) was 1580 µM (inactive). For the same molecule, the GI50 (KM-20L2) was 1990 µM (inactive), the GI50 (KM12) was 2080 µM (inactive) and the GI50 (LOX IMVI) was 569 µM (inactive). The GI50 (M14) was 753 µM (inactive), the GI50 (M19-MEL) was 1580 µM (inactive) and the GI50 (MCF7) was 679 µM (inactive). For the same molecule, the GI50 (MDA-MB-231) was 1860 µM (inactive), the GI50 (MDA-MB-435) was 2340 µM (inactive) and the GI50 (MDA-N) was 2350 µM (inactive). For the same molecule, the GI50 (MOLT-4) was 189 µM (inactive), the GI50 (Malme-3M) was 1590 µM (inactive) and the GI50 (NCI-H226) was 1680 µM (inactive). For the same molecule, the GI50 (NCI-H23) was 904 µM (inactive), the GI50 (NCI-H460) was 156 µM (inactive) and the GI50 (NCI-H522) was 1850 µM (inactive). For the same molecule, the GI50 (NCI/ADR-RES) was 1600 µM (inactive), the GI50 (OVCAR-3) was 2630 µM (inactive) and the GI50 (OVCAR-4) was 2130 µM (inactive). For the same molecule, the GI50 (OVCAR-5) was 2130 µM (inactive), the GI50 (OVCAR-8) was 1650 µM (inactive) and the GI50 (PC-3) was 1270 µM (inactive). The GI50 (RPMI-8226) was 1310 µM (inactive), the GI50 (RXF 393) was 1610 µM (inactive) and the GI50 (SF-268) was 879 µM (inactive). For the same molecule, the GI50 (SF-295) was 526 µM (inactive), the GI50 (SF-539) was 1270 µM (inactive) and the GI50 (SK-MEL-28) was 2440 µM (inactive). The GI50 (SK-MEL-2) was 1940 µM (inactive), the GI50 (SK-MEL-5) was 1550 µM (inactive) and the GI50 (SK-OV-3) was 1550 µM (inactive). For the same molecule, the GI50 (SN12C) was 533 µM (inactive), the GI50 (SNB-19) was 1270 µM (inactive) and the GI50 (SNB-75) was 1580 µM (inactive). For the same molecule, the GI50 (SNB-78) was 2100 µM (inactive), the GI50 (SR) was 148 µM (inactive) and the GI50 (SW-620) was 1140 µM (inactive). For the same molecule, the GI50 (T47D) was 573 µM (inactive), the GI50 (TK-10) was 2020 µM (inactive) and the GI50 (U-251) was 893 µM (inactive). The GI50 (UACC-257) was 1850 µM (inactive), the GI50 (UACC-62) was 393 µM (inactive) and the GI50 (UO-31) was 1990 µM (inactive). For the same molecule, the GI50 (XF498) was 938 µM (inactive).
